These are literature values, as cited in patent publication CN103893129A, “帕潘立酮缓释微球及其注射剂和该缓释微球的制备方法” (CHONGQING DAXIN PHARMACEUTICALS Co Ltd OF PKU INTERNATIONAL …, priority 2012, dated 2014).

The test system of this data set is schizophrenia (精神分裂症).

Consider `Cc1nc2n(c(=O)c1CCN1CCC(c3noc4cc(F)ccc34)CC1)CCCC2O` (centres unmarked) [帕潘立酮, 6,7,8,9-四氢-3-(2-(4-(6-氟-1,2-苯并异唑-3-基)-1-哌啶基)乙基)-9-羟基-2-甲基-4H-吡啶并[2,1-a]嘧啶-4-酮], for which the “efficacy on positive and negative symptoms of schizophrenia” value (clinical) is on record as “对精神分裂症阳性症状和阴性症状均有疗效”. The “relapse rate of schizophrenia” value (patients) is listed as “可有效延迟精神分裂症的复发率”.
